Where two headings read alike, the source gives them in different places.
Tests used:
natalizumab [1] = assay: Binding of purified phage clones to natalizumab-coated wells; conditions: individually amplified and purified phage clones
Procedure: Mimetope peptides were selected from phage display libraries, some of which contain cysteines flanking the peptide mimetope sequence to increase stability of the peptide through disulfide bond formation. After three rounds of selection with multiple phage display libraries, individual phage plaques were isolated and sequenced.
All of these unique phage clones were individually amplified and purified, and their ability to specifically bind natalizumab-coated wells was assessed. […] Selected peptides derived from validated phage clones were chemically synthesized with an N-terminal acetyl modification (in some cases), C-terminal biotin modification via a terminal lysine (all peptides), and a disulfide bridge between cysteines 2 and 10 or cysteines 8 and 16 by a contract peptide manufacturer, as shown in Table 2.

natalizumab [2] = conditions: 1,000 or 10,000 fold molar excess of peptide; Jeko-1 cells
Source text: (§1) Jeko-1 cells, expressing CD49d, were used as a model.
as §1

natalizumab [3] = assay: Competition ELISA between natalizumab-specific VERITOPE and anti-idiotype; type: binding; conditions: capture reagent versus competitive reagent
Source text: In FIG. 11A natalizumab-specific VERITOPE™ is the capture reagent and anti-idiotype is the competitive reagent. In FIG. 11B, anti-idiotype is the capture reagent and natalizumab-specific VERITOPE™ is the competitive reagent.
FIGS. 10A and B illustrates a comparison of VERITOPE™ (FIG. 10A) and anti-idiotype (FIG. 10B) ELISA binding.

natalizumab [4] = assay: Anti-idiotype ELISA versus VERITOPE ELISA on heat-inactivated natalizumab; type: binding; conditions: natalizumab heat-inactivated at 60° C.
[5] = test system: Jeko-1 cells, expressing CD49d; assay: Flow cytometry: binding of heat-inactivated natalizumab to Jeko-1 cells; type: cell-based; conditions: 60° C. for various periods of time; bivalent and arm-exchanged (bispecific) natalizumab
integrin = molecular target: T1, integrin (Homo sapiens, UniProt P13612); conditions: at the end of 4 weeks, cited from earlier work
T1 construct: host or cells: cells of treated patients

Fc gamma receptors = conditions: like other IgG4 antibodies; cited from earlier work
complement = conditions: in vitro; cited from earlier work
natalizumab [6] = conditions: human serum spiked with natalizumab, rituximab, atezolizumab, pembrolizumab, eculizumab
Procedure: Synthesized peptides were validated for specificity by using them as ELISA capture reagents on neutravidin-coated plates. Briefly, biotinylated peptides were coated on the wells at 100 ug/mL concentration in either tris buffered saline buffer (TBS) or water. […] Antibody that was captured by the peptides was subsequently detected using a goat anti-human IgG-Fc conjugated to horseradish peroxidase (HRP) combined with a colorimetric substrate. […] The percent of recovery was calculated as follow: calibrated concentration/nominal concentration×100.

QTLNHSWLHTFIGGG [SEQ ID NO: 13]
specific binding to natalizumab-coated wells (natalizumab [1]): specific binding to natalizumab

Ac-ACPMNESKFCGGG{Lys(Biotin)} with Cys2-Cys10 bridge [NTZ-01-Bio]
inhibition of natalizumab binding to its cell surface target (natalizumab [2]): can inhibit binding of natalizumab to its cell surface target
region of natalizumab bound (natalizumab [3]): bind to the same region of natalizumab, most likely the antigen binding site
ability of capture reagent to distinguish active and inactive drug (natalizumab [4]): selectively distinguishes & quantifies active drug

natalizumab
effect of heat-inactivation on binding to cellular target [5]: alters natalizumab binding to its cellular target
integrin saturation by natalizumab (integrin; Hyams et al. 2007, crohn disease in adolescents): less than 40%
integrin saturation by natalizumab (integrin; Miller et al. 2003, relapsing multiple sclerosis): 80%
binding to Fc gamma receptors (Fc gamma receptors): reduced binding to Fc gamma receptors
ability to fix complement (complement): lack of ability to fix complement

ACPSNPSKFCGGG [SEQ ID NO: 2]
specific binding to natalizumab-coated wells (natalizumab [1]): specific binding to natalizumab

ACPKNPNKFCGGG [SEQ ID NO: 4]
specific binding to natalizumab-coated wells (natalizumab [1]): specific binding to natalizumab

ACPKNPSKFCGGG{Lys(Biotin)} with Cys2-Cys10 bridge [NTZ-07-Bio]
selectivity for natalizumab over other therapeutic monoclonal antibodies (natalizumab [6]): selectively captures natalizumab in presence of other circulating human IgG

ACPMNESKFCGGG [SEQ ID NO: 1]
specific binding to natalizumab-coated wells (natalizumab [1]): specific binding to natalizumab

IYAAYPPCPQNLSKFCRHSSSPGGGG [SEQ ID NO: 16]
specific binding to natalizumab-coated wells (natalizumab [1]): specific binding to natalizumab
